Values after ≈ are worked out from the molar mass of the structure shown.

The experiment has as its system Mycobacterium tuberculosis. The experiment in a line: Antimycobacterial activity against Mycobacterium tuberculosis H37Ra. Format: functional.
As a reminder, the MIC is the lowest concentration that inhibits growth of the organism. Lower therefore signals inhibition by little substance. `CNc1ccccc1C(=O)O[C@@H]1[C@@H](C)[C@]2(O)[C@@H]3C=C(C)C(=O)[C@@H]3[C@H](O)C(C)=C[C@H]2[C@@H]2C(C)(C)[C@]12OC(C)=O` displayed an MIC of more than 200 µg/mL. As for `CNc1ccccc1C(=O)O[C@@H]1[C@@H](C)[C@]2(O)[C@@H]3C=C(C)C(=O)[C@H]3[C@H](O)C(C)=C[C@H]2[C@@H]2C(C)(C)[C@]12OC(C)=O` [SAPINTOXIN C], the minimum inhibitory concentration (MIC) amounted to 25 µg/mL (≈ 47.7 µM).

The molecule `CNc1ccccc1C(=O)O[C@@H]1[C@@H](C)[C@]2(O)[C@@H]3C=C(C)C(=O)[C@@H]3CC(C)=C[C@H]2[C@@H]2C(C)(C)[C@]12OC(C)=O` registered a minimal inhibitory concentration (MIC) of 200 µg/mL (≈ 394 µM). `CNc1ccccc1C(=O)O[C@@H]1[C@@H](C)[C@]2(O)[C@@H]3C=C(C)C(=O)[C@H]3CC(CO)=C[C@H]2[C@@H]2C(C)(C)[C@]12OC(C)=O` [SAPINTOXIN A] yielded an MIC of 3.12 µg/mL (≈ 5.96 µM). On to `CNc1ccccc1C(=O)O[C@@H]1[C@@H](C)[C@]2(O)[C@@H]3C=C(C)C(=O)[C@@H]3[C@H](O)C(CO)=C[C@H]2[C@@H]2C(C)(C)[C@]12OC(C)=O`, for which the lowest concentration to inhibit growth (MIC) was 25 µg/mL (≈ 46.3 µM). The same measure for `CNc1ccccc1C(=O)O[C@@H]1[C@@H](C)[C@]2(O)[C@@H]3C=C(C)C(=O)[C@H]3CC(C)=C[C@H]2[C@@H]2C(C)(C)[C@]12OC(C)=O`: 50 µg/mL (≈ 98.5 µM). The molecule `NC[C@H]1O[C@H](O[C@H]2[C@H](O)[C@@H](O[C@H]3O[C@H](CO)[C@@H](O)[C@H](N)[C@H]3O)[C@H](N)C[C@@H]2N)[C@H](O)[C@@H](O)[C@@H]1O.O=S(=O)(O)O` [KANAMYCIN SULFATE] had a minimum inhibitory concentration (MIC) of 2 µg/mL.

`CNc1ccccc1C(=O)O[C@@H]1[C@@H](C)[C@]2(O)[C@@H]3C=C(C)C(=O)[C@@H]3CC(CO)=C[C@H]2[C@@H]2C(C)(C)[C@]12OC(C)=O` displayed an MIC of more than 200 µg/mL.

On to `NNC(=O)c1ccncc1` [ISONIAZID], for which the MIC was 0.04 µg/mL (≈ 0.292 µM). As to `CNc1ccccc1C(=O)O[C@@H]1[C@@H](C)[C@]2(O)[C@@H]3C=C(C)C(=O)[C@H]3[C@H](O)C(CO)=C[C@H]2[C@@H]2C(C)(C)[C@]12OC(C)=O` [SAPINTOXIN B], it took 12.5 µg/mL (≈ 23.2 µM) to inhibit growth (MIC).

The record behind these values is ChEMBL document CHEMBL1159366, “Antimycobacterial activity of phorbol esters from the fruits of Sapium indicum” (2003).
